Data from ChEMBL document CHEMBL1150977, “A quantitative analysis of kinase inhibitor selectivity” (Nat Biotechnol, 2008).

Legend:
[1] = target: T1, Dual specificity mitogen-activated protein kinase kinase 3 (Homo sapiens, UniProt P46734)
T1 sequence (P46734 whole entry): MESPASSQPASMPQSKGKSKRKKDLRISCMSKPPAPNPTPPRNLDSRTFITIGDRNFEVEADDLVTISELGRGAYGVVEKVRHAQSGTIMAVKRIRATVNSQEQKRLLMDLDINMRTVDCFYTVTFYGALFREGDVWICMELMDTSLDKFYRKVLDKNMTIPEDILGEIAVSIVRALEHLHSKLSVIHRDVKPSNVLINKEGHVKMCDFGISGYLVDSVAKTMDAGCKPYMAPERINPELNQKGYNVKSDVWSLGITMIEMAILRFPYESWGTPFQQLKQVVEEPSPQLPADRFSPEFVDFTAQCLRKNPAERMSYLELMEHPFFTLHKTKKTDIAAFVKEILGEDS

[2] = target: Serine/threonine-protein kinase 38-like (Homo sapiens, UniProt Q9Y2H1)
Chain of Serine/threonine-protein kinase 38-like (Q9Y2H1 whole entry): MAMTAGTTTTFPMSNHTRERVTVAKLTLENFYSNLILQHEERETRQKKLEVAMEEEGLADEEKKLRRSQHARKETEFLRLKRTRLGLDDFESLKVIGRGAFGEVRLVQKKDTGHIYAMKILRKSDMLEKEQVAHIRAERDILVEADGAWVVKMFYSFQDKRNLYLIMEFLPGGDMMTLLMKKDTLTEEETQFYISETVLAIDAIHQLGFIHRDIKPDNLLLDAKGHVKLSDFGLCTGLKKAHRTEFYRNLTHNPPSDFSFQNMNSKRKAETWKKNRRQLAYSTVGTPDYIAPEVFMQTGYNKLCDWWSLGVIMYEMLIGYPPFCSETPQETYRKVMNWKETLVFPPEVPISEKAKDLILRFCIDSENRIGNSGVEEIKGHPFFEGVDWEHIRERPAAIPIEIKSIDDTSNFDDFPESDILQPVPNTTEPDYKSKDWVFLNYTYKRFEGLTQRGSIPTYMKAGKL

[3] = target: 5'-AMP-activated protein kinase catalytic subunit alpha-2 (Homo sapiens, UniProt P54646)
Chain of 5'-AMP-activated protein kinase catalytic subunit alpha-2 (P54646 whole entry): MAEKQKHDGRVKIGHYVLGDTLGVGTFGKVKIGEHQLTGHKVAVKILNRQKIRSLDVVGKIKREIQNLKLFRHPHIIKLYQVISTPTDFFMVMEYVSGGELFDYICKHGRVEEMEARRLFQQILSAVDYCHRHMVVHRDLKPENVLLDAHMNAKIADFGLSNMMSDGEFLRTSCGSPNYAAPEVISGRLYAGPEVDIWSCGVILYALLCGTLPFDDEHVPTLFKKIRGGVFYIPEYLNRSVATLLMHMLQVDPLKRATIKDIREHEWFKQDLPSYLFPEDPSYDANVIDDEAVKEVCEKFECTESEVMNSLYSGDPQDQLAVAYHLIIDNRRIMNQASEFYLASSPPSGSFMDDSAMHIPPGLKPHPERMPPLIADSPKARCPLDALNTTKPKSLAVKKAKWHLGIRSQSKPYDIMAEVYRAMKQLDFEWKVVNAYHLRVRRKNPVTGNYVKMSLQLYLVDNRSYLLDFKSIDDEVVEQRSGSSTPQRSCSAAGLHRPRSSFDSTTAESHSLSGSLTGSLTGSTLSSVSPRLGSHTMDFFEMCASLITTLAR

[4] = target: Insulin receptor (Homo sapiens, UniProt P06213)
Chain of Insulin receptor (P06213 28-758 limits assumed): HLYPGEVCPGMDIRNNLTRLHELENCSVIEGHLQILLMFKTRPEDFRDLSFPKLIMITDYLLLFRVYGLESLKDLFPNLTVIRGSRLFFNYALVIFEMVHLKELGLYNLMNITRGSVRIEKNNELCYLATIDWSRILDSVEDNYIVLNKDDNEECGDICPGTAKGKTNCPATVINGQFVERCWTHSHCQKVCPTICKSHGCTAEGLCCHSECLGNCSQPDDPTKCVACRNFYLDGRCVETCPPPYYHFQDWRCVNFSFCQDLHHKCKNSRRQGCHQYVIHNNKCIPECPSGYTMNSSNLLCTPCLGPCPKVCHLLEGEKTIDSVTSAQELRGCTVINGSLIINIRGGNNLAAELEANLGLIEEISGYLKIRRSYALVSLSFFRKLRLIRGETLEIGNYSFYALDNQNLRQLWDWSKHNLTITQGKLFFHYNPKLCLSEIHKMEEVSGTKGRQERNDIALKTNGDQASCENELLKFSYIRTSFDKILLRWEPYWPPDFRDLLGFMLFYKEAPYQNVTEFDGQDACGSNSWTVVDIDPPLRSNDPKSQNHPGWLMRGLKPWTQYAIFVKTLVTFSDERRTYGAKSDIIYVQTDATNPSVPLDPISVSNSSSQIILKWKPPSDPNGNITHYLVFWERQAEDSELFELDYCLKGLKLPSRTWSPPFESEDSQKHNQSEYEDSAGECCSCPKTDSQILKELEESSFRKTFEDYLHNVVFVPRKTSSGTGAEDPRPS
Chain of Insulin receptor (P06213 763-1382 limits assumed): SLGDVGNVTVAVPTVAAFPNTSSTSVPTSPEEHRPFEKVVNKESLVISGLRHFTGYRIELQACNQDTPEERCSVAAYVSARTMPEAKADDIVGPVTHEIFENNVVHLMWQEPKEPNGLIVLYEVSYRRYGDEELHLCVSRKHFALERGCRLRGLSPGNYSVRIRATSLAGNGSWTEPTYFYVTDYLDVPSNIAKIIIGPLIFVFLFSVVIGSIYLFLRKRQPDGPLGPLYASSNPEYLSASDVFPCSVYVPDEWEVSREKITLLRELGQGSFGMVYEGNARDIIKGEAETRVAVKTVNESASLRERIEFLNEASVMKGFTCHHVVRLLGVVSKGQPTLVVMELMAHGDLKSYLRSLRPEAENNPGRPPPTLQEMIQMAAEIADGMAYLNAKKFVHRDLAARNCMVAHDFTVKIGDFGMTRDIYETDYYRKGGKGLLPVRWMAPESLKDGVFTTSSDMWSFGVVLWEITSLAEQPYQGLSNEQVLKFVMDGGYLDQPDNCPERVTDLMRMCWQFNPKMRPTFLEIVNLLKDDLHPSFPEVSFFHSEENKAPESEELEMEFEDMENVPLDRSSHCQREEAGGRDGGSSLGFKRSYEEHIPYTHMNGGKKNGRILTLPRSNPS

[5] = target: Serine/threonine-protein kinase Nek6 (Homo sapiens, UniProt Q9HC98)
Chain of Serine/threonine-protein kinase Nek6 (Q9HC98 whole entry): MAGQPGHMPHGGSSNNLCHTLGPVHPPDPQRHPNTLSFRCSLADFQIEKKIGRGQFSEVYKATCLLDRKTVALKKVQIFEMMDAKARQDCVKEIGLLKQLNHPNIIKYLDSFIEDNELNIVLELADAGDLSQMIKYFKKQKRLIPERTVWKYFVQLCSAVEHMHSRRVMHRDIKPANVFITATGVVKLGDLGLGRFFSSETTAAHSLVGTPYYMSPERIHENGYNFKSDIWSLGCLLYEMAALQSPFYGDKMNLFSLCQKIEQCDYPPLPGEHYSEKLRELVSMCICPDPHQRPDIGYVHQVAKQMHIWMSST

[6] = target: Glycogen synthase kinase-3 alpha (Homo sapiens, UniProt P49840)
[7] = target: Vascular endothelial growth factor receptor 2 (Homo sapiens, UniProt P35968)
[8] = target: Atypical kinase COQ8A, mitochondrial (Homo sapiens, UniProt Q8NI60)
[9] = target: Mitogen-activated protein kinase 9 (Homo sapiens, UniProt P45984)
Chain of Mitogen-activated protein kinase 9 (P45984 whole entry): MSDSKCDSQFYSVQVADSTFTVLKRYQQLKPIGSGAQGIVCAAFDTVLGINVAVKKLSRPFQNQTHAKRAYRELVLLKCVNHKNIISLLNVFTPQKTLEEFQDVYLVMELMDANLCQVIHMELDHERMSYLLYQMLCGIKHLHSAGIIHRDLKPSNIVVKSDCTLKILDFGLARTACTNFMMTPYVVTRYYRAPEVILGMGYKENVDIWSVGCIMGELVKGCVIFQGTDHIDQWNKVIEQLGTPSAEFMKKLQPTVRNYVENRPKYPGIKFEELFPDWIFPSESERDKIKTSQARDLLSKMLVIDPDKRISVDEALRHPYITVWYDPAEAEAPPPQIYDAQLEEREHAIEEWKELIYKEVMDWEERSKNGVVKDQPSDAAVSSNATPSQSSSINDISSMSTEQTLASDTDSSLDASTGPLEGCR

[10] = target: T2, Ephrin type-A receptor 1 (Homo sapiens, UniProt P21709)
T2 sequence (P21709 whole entry): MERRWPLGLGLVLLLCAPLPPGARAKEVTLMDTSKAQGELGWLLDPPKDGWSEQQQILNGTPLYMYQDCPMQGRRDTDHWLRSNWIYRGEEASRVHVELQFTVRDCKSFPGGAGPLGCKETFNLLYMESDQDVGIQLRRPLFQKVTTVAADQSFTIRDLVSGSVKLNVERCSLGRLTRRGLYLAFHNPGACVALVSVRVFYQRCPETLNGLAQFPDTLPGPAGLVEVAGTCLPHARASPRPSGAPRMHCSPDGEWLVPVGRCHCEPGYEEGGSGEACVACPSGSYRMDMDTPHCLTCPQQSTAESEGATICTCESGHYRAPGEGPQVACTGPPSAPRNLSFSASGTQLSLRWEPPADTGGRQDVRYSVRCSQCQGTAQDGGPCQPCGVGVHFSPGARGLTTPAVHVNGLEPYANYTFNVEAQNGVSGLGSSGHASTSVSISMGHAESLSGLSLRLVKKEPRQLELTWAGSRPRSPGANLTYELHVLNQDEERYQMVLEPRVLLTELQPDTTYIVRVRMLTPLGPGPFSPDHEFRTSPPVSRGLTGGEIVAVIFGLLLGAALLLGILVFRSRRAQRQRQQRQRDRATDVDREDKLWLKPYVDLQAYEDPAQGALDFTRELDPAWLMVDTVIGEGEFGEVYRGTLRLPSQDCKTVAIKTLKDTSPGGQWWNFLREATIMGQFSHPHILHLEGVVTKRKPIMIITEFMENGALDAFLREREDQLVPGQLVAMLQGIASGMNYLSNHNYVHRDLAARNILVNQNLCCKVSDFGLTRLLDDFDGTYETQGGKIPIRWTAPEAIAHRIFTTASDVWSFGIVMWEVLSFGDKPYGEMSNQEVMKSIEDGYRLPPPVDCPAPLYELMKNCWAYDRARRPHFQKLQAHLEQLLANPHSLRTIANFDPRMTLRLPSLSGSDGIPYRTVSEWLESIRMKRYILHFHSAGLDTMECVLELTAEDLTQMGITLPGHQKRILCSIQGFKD

[11] = target: Non-receptor tyrosine-protein kinase TYK2 (Homo sapiens, UniProt P29597)
[12] = target: 5'-AMP-activated protein kinase catalytic subunit alpha-1 (Homo sapiens, UniProt Q13131)
Chain of 5'-AMP-activated protein kinase catalytic subunit alpha-1 (Q13131 whole entry): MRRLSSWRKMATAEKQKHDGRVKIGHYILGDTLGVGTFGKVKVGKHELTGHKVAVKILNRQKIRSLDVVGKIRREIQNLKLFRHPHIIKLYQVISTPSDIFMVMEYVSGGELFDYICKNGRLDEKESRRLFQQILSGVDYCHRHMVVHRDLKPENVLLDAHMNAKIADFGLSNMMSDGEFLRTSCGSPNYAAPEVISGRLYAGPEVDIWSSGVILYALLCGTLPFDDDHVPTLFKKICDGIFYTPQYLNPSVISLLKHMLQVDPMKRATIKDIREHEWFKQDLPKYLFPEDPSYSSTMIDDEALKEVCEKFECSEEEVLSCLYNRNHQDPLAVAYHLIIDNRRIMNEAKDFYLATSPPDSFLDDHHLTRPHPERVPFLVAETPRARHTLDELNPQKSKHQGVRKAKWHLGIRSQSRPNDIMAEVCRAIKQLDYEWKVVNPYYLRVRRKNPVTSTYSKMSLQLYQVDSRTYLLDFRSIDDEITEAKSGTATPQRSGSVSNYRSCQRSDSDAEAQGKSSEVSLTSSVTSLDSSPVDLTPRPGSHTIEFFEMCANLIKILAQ

[13] = target: Dual specificity protein kinase CLK3 (Homo sapiens, UniProt P49761)
Chain of Dual specificity protein kinase CLK3 (P49761 whole entry): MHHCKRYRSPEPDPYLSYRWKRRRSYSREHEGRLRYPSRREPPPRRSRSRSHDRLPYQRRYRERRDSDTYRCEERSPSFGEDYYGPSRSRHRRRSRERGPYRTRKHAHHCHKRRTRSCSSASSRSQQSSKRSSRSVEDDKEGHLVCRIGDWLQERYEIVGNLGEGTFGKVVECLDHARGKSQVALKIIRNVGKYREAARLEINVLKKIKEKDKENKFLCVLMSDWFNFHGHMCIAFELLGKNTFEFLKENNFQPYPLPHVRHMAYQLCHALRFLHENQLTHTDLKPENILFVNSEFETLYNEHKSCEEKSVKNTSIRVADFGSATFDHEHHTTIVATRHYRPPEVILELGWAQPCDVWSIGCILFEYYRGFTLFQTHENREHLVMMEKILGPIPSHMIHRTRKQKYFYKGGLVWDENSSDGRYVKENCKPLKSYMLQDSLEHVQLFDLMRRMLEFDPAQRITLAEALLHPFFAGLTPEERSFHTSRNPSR

[14] = target: T3, Serine/threonine-protein kinase Nek9 (Homo sapiens, UniProt Q8TD19)
T3 sequence (Q8TD19 whole entry): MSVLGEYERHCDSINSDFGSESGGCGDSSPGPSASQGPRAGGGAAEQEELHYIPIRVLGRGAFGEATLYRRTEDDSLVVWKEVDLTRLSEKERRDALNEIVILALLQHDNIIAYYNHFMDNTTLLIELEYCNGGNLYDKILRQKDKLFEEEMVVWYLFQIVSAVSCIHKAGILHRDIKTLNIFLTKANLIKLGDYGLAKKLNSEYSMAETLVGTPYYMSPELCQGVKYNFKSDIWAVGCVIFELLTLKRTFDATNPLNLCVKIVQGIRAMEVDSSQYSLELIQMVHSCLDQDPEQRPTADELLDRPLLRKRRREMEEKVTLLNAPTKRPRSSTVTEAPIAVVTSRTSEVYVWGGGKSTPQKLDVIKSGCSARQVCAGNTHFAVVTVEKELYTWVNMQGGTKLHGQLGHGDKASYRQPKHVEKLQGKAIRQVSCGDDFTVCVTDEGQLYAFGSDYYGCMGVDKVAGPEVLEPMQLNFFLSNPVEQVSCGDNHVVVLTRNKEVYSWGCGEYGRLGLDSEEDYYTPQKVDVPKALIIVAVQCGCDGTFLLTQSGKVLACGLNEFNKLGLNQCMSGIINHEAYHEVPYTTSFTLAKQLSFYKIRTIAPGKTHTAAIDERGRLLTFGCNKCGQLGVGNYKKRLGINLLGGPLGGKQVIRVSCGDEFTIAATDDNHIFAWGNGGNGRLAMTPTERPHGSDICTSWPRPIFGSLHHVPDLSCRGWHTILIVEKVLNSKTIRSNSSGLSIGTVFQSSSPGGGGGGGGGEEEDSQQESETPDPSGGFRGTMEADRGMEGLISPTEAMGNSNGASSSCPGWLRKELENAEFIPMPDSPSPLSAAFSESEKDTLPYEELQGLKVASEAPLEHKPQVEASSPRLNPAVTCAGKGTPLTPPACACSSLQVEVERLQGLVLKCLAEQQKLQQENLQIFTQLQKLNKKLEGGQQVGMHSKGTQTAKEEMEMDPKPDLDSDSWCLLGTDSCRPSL

[15] = target: Calcium/calmodulin-dependent protein kinase type 1 (Homo sapiens, UniProt Q14012)
Chain of Calcium/calmodulin-dependent protein kinase type 1 (Q14012 whole entry): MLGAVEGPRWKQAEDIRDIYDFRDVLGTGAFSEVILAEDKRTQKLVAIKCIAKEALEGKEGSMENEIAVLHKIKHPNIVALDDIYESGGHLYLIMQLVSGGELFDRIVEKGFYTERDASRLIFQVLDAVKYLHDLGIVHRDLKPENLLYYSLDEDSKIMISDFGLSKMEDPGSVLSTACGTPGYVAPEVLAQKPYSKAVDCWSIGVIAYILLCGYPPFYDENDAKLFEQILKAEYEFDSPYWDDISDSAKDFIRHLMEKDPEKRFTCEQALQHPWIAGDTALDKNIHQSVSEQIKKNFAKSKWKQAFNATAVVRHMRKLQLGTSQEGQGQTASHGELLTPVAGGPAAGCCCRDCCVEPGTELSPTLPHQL

| Structure (SMILES) | Kd [1] [µM] | Kd [2] [µM] | Kd [3] [µM] | Kd [4] [µM] | Kd [5] [µM] | Kd [6] [µM] | Kd [7] [µM] | Kd [8] [µM] | Kd [9] [µM] | Kd [10] [µM] | Kd [11] [µM] | Kd [12] [µM] | Kd [13] [µM] | Kd [14] [µM] | Kd [15] [µM] |
| --- | --- | --- | --- | --- | --- | --- | --- | --- | --- | --- | --- | --- | --- | --- | --- |
| COCC(=O)NC/C=C/c1ccc2ncnc(Nc3ccc(Oc4ccc(C)nc4)c(C)c3)c2c1 [CP-724714] | > 10 | > 10 | > 10 | > 10 | > 10 | > 10 | > 10 | > 10 | > 10 | > 10 | > 10 | > 10 | > 10 | > 10 |  |
| CCOc1cc2ncc(C#N)c(Nc3ccc(F)c(Cl)c3)c2cc1NC(=O)/C=C/CN(C)C [PELITINIB] | > 10 | > 10 | > 10 | > 10 | > 10 | > 10 | > 10 | > 10 | > 10 | > 10 | > 10 | > 10 | 5.6 | > 10 | > 10 |
| NC(=O)c1ccc(-c2nc(-c3ccc4c(c3)OCO4)c(-c3ccccn3)[nH]2)cc1 [SB-431542] | > 10 | > 10 | > 10 | > 10 | > 10 | > 10 | > 10 | > 10 | > 10 | > 10 | > 10 | > 10 | > 10 | > 10 | > 10 |
| CCN1CCN(Cc2ccc(NC(=O)Nc3ccc(Oc4cc(NC)ncn4)cc3)cc2C(F)(F)F)CC1 [AST-487] | > 10 | > 10 |  | > 10 | > 10 | > 10 |  |  |  | > 10 | 2.1 |  | > 10 | > 10 |  |
| Nc1nc(Nc2ccc(S(N)(=O)=O)cc2)nn1C(=O)c1c(F)cccc1F [JNJ-7706621] | 1.5 | > 10 |  | > 10 | > 10 | 0.16 |  |  |  | > 10 | 0.032 |  | 0.31 | > 10 | > 10 |
| Oc1ccc(-c2nc(-c3ccncc3)c(-c3ccc(F)cc3)[nH]2)cc1 [SB-202190] | > 10 | > 10 | > 10 | > 10 | > 10 | > 10 | > 10 | > 10 |  | > 10 | > 10 | > 10 | > 10 | > 10 | > 10 |
